One test concerns the target T1, G2019S LRRK2 (Homo sapiens, UniProt Q5S007, G2019S).
T1 construct: expressed in transfected cells; host or cells: HEK293 (ATCC CRL-1573), transient transfection, mammalian expression vector with ubiquitin promoter
As to the kind of experiment: LRRK2 degradation assay, HiBit-tagged G2019S LRRK2 expressed from plasmid in HEK293 cells (Nano-Glo Dual-Luciferase). It is filed as cell-based. Particulars: HiBit-tagged G2019S LRRK2 in HEK293 cells, 24 hours. In outline:
(§1)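 HEK293 cells co-transfected with C-terminal HiBiT-tagged LRRK2 (WT or G2019S, ubiquitin promoter) and firefly luciferase, then dosed 24 h at 37 °C. HiBiT/firefly ratio normalized to DMSO median; DC50 and Dmax from per-plate curve fits, six replicates over two days.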
On the technique in general: With HiBiT, luminescence reflects the tagged protein that the partner subunit can reach.

In a further test the target is T2, wildtype LRRK2 (Homo sapiens, UniProt Q5S007).
T2 construct: expressed in transfected cells; host or cells: HEK293 (ATCC CRL-1573), transient transfection, mammalian expression vector with ubiquitin promoter
T2 sequence (Q5S007 whole entry): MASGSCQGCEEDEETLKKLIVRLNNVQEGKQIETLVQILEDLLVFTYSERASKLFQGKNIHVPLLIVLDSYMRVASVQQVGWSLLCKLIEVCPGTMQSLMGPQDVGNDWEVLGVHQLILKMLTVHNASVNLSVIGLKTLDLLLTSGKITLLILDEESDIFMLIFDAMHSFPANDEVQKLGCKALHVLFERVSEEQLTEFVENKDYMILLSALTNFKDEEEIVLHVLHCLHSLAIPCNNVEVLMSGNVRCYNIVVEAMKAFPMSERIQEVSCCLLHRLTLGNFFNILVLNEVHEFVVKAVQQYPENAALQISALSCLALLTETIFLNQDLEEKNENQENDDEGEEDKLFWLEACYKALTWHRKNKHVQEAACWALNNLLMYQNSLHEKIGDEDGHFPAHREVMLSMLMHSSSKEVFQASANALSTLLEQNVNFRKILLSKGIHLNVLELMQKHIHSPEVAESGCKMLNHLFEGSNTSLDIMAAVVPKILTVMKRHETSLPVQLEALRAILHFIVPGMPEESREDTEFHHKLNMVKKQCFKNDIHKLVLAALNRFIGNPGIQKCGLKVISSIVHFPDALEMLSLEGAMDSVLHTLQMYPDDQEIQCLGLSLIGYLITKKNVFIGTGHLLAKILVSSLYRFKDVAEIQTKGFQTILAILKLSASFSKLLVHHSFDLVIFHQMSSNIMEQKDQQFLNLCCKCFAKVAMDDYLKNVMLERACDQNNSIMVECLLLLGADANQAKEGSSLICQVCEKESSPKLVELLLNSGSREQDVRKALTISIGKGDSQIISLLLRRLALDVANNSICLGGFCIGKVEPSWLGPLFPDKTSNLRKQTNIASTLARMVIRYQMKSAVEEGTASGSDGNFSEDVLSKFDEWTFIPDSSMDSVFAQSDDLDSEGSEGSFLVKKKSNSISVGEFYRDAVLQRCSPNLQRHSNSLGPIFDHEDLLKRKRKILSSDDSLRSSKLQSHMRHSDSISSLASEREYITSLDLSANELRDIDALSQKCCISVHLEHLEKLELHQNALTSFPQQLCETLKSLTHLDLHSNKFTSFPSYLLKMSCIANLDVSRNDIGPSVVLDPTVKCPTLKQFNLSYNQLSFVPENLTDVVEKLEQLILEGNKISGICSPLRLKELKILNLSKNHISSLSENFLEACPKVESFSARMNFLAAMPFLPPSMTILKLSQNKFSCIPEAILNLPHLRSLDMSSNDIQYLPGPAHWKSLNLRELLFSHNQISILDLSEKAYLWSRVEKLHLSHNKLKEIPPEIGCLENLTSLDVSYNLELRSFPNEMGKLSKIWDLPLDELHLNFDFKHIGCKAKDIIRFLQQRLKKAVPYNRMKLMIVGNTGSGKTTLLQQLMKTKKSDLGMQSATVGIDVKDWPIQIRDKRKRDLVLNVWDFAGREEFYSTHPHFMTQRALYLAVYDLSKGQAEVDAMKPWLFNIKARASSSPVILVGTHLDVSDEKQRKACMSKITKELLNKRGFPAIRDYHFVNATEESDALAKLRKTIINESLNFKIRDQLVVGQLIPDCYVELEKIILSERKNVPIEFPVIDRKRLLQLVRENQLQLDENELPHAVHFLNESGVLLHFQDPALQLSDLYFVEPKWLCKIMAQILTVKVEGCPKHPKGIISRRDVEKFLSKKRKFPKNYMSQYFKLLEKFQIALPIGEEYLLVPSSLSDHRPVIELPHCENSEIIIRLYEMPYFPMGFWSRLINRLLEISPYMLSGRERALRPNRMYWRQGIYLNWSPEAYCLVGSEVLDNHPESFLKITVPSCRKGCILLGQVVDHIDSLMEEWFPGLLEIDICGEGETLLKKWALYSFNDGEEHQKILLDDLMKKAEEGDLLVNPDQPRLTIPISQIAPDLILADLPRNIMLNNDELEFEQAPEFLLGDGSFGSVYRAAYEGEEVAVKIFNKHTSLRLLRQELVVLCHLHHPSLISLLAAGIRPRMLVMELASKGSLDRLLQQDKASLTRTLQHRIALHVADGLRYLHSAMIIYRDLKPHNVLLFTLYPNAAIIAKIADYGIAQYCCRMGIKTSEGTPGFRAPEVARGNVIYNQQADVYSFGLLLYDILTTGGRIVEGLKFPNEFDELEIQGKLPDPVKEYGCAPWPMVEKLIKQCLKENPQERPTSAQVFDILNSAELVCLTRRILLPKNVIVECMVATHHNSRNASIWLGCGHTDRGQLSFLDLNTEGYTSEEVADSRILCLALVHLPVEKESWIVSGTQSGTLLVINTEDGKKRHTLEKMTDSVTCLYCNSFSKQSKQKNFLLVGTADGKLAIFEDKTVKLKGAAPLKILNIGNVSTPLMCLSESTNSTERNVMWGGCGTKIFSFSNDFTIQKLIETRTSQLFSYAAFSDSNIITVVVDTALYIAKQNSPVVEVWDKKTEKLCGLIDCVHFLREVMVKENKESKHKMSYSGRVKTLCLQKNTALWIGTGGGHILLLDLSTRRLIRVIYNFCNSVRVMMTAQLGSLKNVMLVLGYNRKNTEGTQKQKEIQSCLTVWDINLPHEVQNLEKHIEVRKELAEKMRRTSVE
As to the kind of experiment: LRRK2 degradation assay, HiBit-tagged wildtype LRRK2 expressed from plasmid in HEK293 cells (Nano-Glo Dual-Luciferase). The class given is cell-based. Particulars: HiBit-tagged wildtype LRRK2 in HEK293 cells, 24 hours; for Dmax: read-out: **WT Dmax (%); for DC50: read-out: *WT DC50. Summed up: as §1

T1 sequence (Q5S007 whole entry G2019S): as the sequence (Q5S007 whole entry) above, with G2019S counted along it

Take `CC1(Oc2ccc3[nH]nc(-c4cc(N5CCC(CN6CC(CN7CCN(c8ccc9c(c8)C(=O)N(C8CCC(=O)NC8=O)C9=O)CC7)C6)CC5)ncn4)c3c2)CC1` (stereo not drawn) [Compound 125, 2-(2,6-dioxo-3-piperidyl)-5-[4-[[11-[[1-[6-[5-(1-methylcyclopropoxy)-1H-indazol-3-yl]pyrimidin-4-yl]-4-piperidyl]methyl]azetidin-3-yl]methyl]piperazin-1-yl]isoindoline-1,3-dione]: the DC50 on G2019S LRRK2 and at wildtype LRRK2 was less than 10 nM in each case. For the same molecule, the Dmax on G2019S LRRK2 and on wildtype LRRK2 was 50 to 70% throughout.

At G2019S LRRK2, `CC1(Oc2ccc3[nH]nc(-c4cc(N5CCC(O[C@H]6C[C@H](OC7CCN(c8ccc9c(c8)C(=O)N(C8CCC(=O)NC8=O)C9=O)CC7)C6)CC5)ncn4)c3c2)CC1` (stereo partly drawn) [Compound 126, 2-(2,6-dioxo-3-piperidyl)-5-[4-[3-[[1-[6-[5-(1-methylcyclopropoxy)-1H-indazol-3-yl]pyrimidin-4-yl]-4-piperidyl]oxy]cyclobutoxy]-1-piperidyl]isoindoline-1,3-dione] had a DC50 of 10 to 50 nM and a Dmax of less than 50%. At wildtype LRRK2, the Dmax was less than 50% and the DC50 was in the range of 10 to 50 nM.

As for `CC1(Oc2ccc3[nH]nc(-c4cc(N5CCC(CN=S6(=O)CCN(CC7CCN(c8ccc9c(c8)C(=O)N(C8CCC(=O)NC8=O)C9=O)CC7)CC6)CC5)ncn4)c3c2)CC1` (stereo not drawn) [Compound 63, 2-(2,6-dioxo-3-piperidyl)-5-[4-[[1-[[1-[6-[5-(1-methylcyclopropoxy)-1H-indazol-3-yl]pyrimidin-4-yl]-4-piperidyl]methylimino]-1-oxo-1,4-thiazinan-4-yl]methyl]-1-piperidyl]isoindoline-1,3-dione], at G2019S LRRK2, the DC50 was less than 10 nM and the Dmax was not below 70%. Moreover, at wildtype LRRK2, the greatest degradation seen (Dmax) was not below 70% and the DC50 is less than 10 nM.

As for `CC1(Oc2ccc3[nH]nc(-c4cc(N5CCN(C[C@H]6CC[C@H](CN7CCN(c8ccc9c(c8)C(=O)N(C8CCC(=O)NC8=O)C9=O)CC7)CC6)CC5)ncn4)c3c2)CC1` (stereo partly drawn) [Compound 101, 2-(2,6-dioxo-3-piperidyl)-5-[4-[[4-[[4-[6-[5-(1-methylcyclopropoxy)-1H-indazol-3-yl]pyrimidin-4-yl]piperazin-1-yl]methyl]cyclohexyl]methyl]piperazin-1-yl]isoindoline-1,3-dione], on G2019S LRRK2, the DC50 was less than 10 nM and the Dmax was less than 50%. On wildtype LRRK2, the Dmax lay within 50 to 70% and the DC50 was 10 to 50 nM.

At G2019S LRRK2, `CC1(Oc2ccc3[nH]nc(-c4cc(N5CCC(CN6CCC(F)(CN7CCN(c8ccc9c(c8)C(=O)N(C8CCC(=O)NC8=O)C9=O)CC7)CC6)CC5)ncn4)c3c2)CC1` (stereo not drawn) [Compound 83, 2-(2,6-dioxo-3-piperidyl)-5-[4-[[4-fluoro-1-[[1-[6-[5-(1-methylcyclopropoxy)-1H-indazol-3-yl]pyrimidin-4-yl]-4-piperidyl]methyl]-4-piperidyl]methyl]piperazin-1-yl]isoindoline-1,3-dione] yielded a DC50 of less than 10 nM and a Dmax not below 70%. For the same molecule, at wildtype LRRK2, the greatest degradation seen (Dmax) lay within 50 to 70% and the half-maximal degradation concentration (DC50) was less than 10 nM.

`CC1(Oc2ccc3[nH]nc(-c4cc(N5CCC(CN6CC[C@H](OC7CCN(c8ccc9c(c8)C(=O)N(C8CCC(=O)NC8=O)C9=O)CC7)C6)CC5)ncn4)c3c2)CC1` (stereo partly drawn) [Compound 118, 2-(2,6-dioxo-3-piperidyl)-5-[4-[(3S)-1-[[1-[6-[5-(1-methylcyclopropoxy)-1H-indazol-3-yl]pyrimidin-4-yl]-4-piperidyl]methyl]pyrrolidin-3-yl]oxy-1-piperidyl]isoindoline-1,3-dione]: at G2019S LRRK2, the half-maximal degradation concentration (DC50) is 10 to 50 nM and the greatest degradation seen (Dmax) was less than 50%. Besides, on wildtype LRRK2, the maximal degradation (Dmax) lay within 50 to 70% and the DC50 fell in the range of 10 to 50 nM.

As for `CC1(Oc2ccc3[nH]nc(-c4cc(N5CCN(CC6(F)CCN(CC7CCN(c8ccc9c(c8)CN(C8CCC(=O)NC8=O)C9=O)CC7)CC6)CC5)ncn4)c3c2)CC1` (stereo not drawn) [Compound 110, 3-[5-[4-[[4-fluoro-4-[[4-[6-[5-(1-methylcyclopropoxy)-1H-indazol-3-yl]pyrimidin-4-yl]piperazin-1-yl]methyl]-1-piperidyl]methyl]-1-piperidyl]-1-oxo-isoindolin-2-yl]piperidine-2,6-dione], at G2019S LRRK2, the DC50 is less than 10 nM and the Dmax was 50 to 70%. On wildtype LRRK2, the Dmax is 50 to 70% and the DC50 is less than 10 nM.

Take `CC1(Oc2ccc3[nH]nc(-c4cc(N5CCC(O[C@H]6CC[C@H](OC7CCN(c8ccc9c(c8)C(=O)N(C8CCC(=O)NC8=O)C9=O)CC7)CC6)CC5)ncn4)c3c2)CC1` (stereo partly drawn) [Compound 108, 2-(2,6-dioxo-3-piperidyl)-5-[4-[4-[[1-[6-[5-(1-methylcyclopropoxy)-1H-indazol-3-yl]pyrimidin-4-yl]-4-piperidyl]oxy]cyclohexoxy]-1-piperidyl]isoindoline-1,3-dione]: the DC50 at G2019S LRRK2 and at wildtype LRRK2 was 10 to 50 nM in each case. Further, the maximal degradation (Dmax) at G2019S LRRK2 was less than 50%; on wildtype LRRK2, 50 to 70%.

At G2019S LRRK2, `CC1(Oc2ccc3[nH]nc(-c4cc(N5CCN(CC6CCN(CCCCNc7cccc8c7CN(C7CCC(=O)NC7=O)C8=O)CC6)CC5)ncn4)c3c2)CC1` (stereo not drawn) [Compound 143, 3-[4-[4-[4-[[4-[6-[5-(1-methylcyclopropoxy)-1H-indazol-3-yl]pyrimidin-4-yl]piperazin-1-yl]methyl]-1-piperidyl]butylamino]-1-oxo-isoindolin-2-yl]piperidine-2,6-dione] had a 50% degradation concentration (DC50) of 10 to 50 nM and a Dmax of 50 to 70%. On wildtype LRRK2, the Dmax was less than 50% and the DC50 is 10 to 50 nM.

With `CC1(Oc2ccc3n[nH]c(-c4cc(N5CCN(C(=O)C6CCN(CC7CCN(c8ccc9c(c8)C(=O)N(C8CCC(=O)NC8=O)C9=O)CC7)CC6)CC5)ncn4)c3c2)CC1` (stereo not drawn) [Compound 84, 2-(2,6-dioxo-3-piperidyl)-5-[4-[[4-[4-[6-[5-(1-methylcyclopropoxy)-2H-indazol-3-yl]pyrimidin-4-yl]piperazine-1-carbonyl]-1-piperidyl]methyl]-1-piperidyl]isoindoline-1,3-dione], the DC50 at G2019S LRRK2 and at wildtype LRRK2 was less than 10 nM throughout. Also, the results for the maximal degradation (Dmax) at G2019S LRRK2 and at wildtype LRRK2 were less than 50% and 50 to 70%, respectively.

In the case of `C[C@H]1CN(c2cc(-c3n[nH]c4ccc(OC5(C)CC5)cc34)ncn2)CCN1CCN1CCN(CC2CCN(c3ccc4c(c3)C(=O)N(C3CCC(=O)NC3=O)C4=O)CC2)CC1` (stereo partly drawn) [Compound 55, 2-(2,6-dioxopiperidin-3-yl)-5-{4-[(4-{2-[(2S)-2-methyl-4-{6-[5-(1-methylcyclopropoxy)-1H-indazol-3-yl]pyrimidin-4-yl}piperazin-1-yl]ethyl}piperazin-1-yl)methyl]piperidin-1-yl}-2,3-dihydro-1H-isoindole-1,3-dione], the half-maximal degradation concentration (DC50) at G2019S LRRK2 and at wildtype LRRK2 was less than 10 nM throughout. Moreover, the greatest degradation seen (Dmax) at G2019S LRRK2 and on wildtype LRRK2 was not below 70% throughout.

On G2019S LRRK2, `C[C@H]1CN(c2cc(-c3n[nH]c4ccc(OC5(C)CC5)cc34)ncn2)CCN1CC1CN(CC2CCN(c3ccc4c(c3)C(=O)N(C3CCC(=O)NC3=O)C4=O)CC2)C1` (stereo partly drawn) [Compound 122, 2-(2,6-dioxo-3-piperidyl)-5-[4-[[3-[[(2S)-2-methyl-4-[6-[5-(1-methylcyclopropoxy)-1H-indazol-3-yl]pyrimidin-4-yl]piperazin-1-yl]methyl]azetidin-1-yl]methyl]-1-piperidyl]isoindoline-1,3-dione] had a DC50 of less than 10 nM and a Dmax of 50 to 70%. On wildtype LRRK2, the Dmax is 50 to 70% and the DC50 was less than 10 nM.

Take `CC1(Oc2ccc3[nH]nc(-c4ccnc(N5CCOC6(CN(CC7CCN(CC8CCN(c9ccc%10c(c9)C(=O)N(C9CCC(=O)NC9=O)C%10=O)CC8)CC7)C6)C5)c4)c3c2)CC1` (stereo not drawn) [Compound 151, 2-(2,6-dioxo-3-piperidyl)-5-[4-[[4-[[8-[4-[5-(1-methylcyclopropoxy)-1H-indazol-3-yl]-2-pyridyl]-5-oxa-2,8-diazaspiro[3.5]nonan-2-yl]methyl]-1-piperidyl]methyl]-1-piperidyl]isoindoline-1,3-dione]: on G2019S LRRK2, the DC50 is less than 10 nM and the Dmax was 50 to 70%. At wildtype LRRK2, the Dmax is 50 to 70% and the 50% degradation concentration (DC50) is less than 10 nM.

`CC1(Oc2ccc3[nH]nc(-c4cc(N5CCO[C@@H](CN6CCC(OC7CCN(c8ccc9c(c8)C(=O)N(C8CCC(=O)NC8=O)C9=O)CC7)CC6)C5)ncn4)c3c2)CC1` (stereo partly drawn) [Compound 149, 2-(2,6-dioxo-3-piperidyl)-5-[4-[[1-[[(2S)-4-[6-[5-(1-methylcyclopropoxy)-1H-indazol-3-yl]pyrimidin-4-yl]morpholin-2-yl]methyl]-4-piperidyl]oxy]-1-piperidyl]isoindoline-1,3-dione]: the 50% degradation concentration (DC50) on G2019S LRRK2 and on wildtype LRRK2 was 10 to 50 nM throughout. The maximal degradation (Dmax) on G2019S LRRK2 and at wildtype LRRK2 was 50 to 70% in each case.

On G2019S LRRK2, `CC1(Oc2ccc3[nH]nc(-c4cc(N5CCN(CCN6CCN(CC7CCN(c8ccc9c(c8)C(=O)N(C8CCC(=O)NC8=O)C9=O)CC7)CC6)CC5)ncn4)c3c2)CC1` (stereo not drawn) [Compound 54, 2-(2,6-dioxopiperidin-3-yl)-5-[4-({4-[2-(4-{6-[5-(1-methylcyclopropoxy)-1H-indazol-3-yl]pyrimidin-4-yl}piperazin-1-yl)ethyl]piperazin-1-yl}methyl)piperidin-1-yl]-2,3-dihydro-1H-isoindole-1,3-dione] had a DC50 of less than 10 nM and a Dmax not below 70%. At wildtype LRRK2, the Dmax was not below 70% and the DC50 is less than 10 nM.

Usually DC50 stands for the midpoint of the concentration-degradation curve. As a reminder, the Dmax is the largest share of the target that was removed.

Source of the values: patent US12559506B2, “Indazole based compounds and associated methods of use” (Arvinas Operations, Inc., priority 2021, dated 2026).
